The subject of the experiment is OKP-GS cells. Put plainly: Annexin-V/propidium iodide apoptosis assay by flow cytometry. Format: cell-based, human. As to conditions: for Living cells: Figure 3; for Level of apoptosis compared with sorafnib / Number of necrotic cells: 72 h; for Number of necrotic cells: 5, 10 and 20 μM. On the procedure:
Apoptosis is a versatile and extremely effective pathway for cell death. This phenomenon can be caused by internal signals, such as genotoxic stress, or external signals, such as the binding of ligands to death receptors on the cell surface. The induction of apoptosis was studied by measuring the translocation of phosphatidylserine from the cytoplasmic to the extracellular side of the plasma membrane. OKP-GS cells were treated with compound 7 or 10 at 5, 10 and 20 μM for 72 h, after which annexin-V/propidium iodide (PI) binding was measured by flow cytometry (Figure 2).
Tumor cells were plated on a 6-well plate at a density of 100.000 per well for OKP-GS. Test compounds 7 and 10 were added at concentrations of 5, 10, and 20 μM for 72 h. Then, the cells were washed from the culture medium by centrifugation at 1000 rpm for 5 min, washed again with phosphate buffer, then the Annexin V-FITC and PI dyes from the Annexin 5A-FITC Kit (Beckman Coulter, Brea, CA, USA) were added, according to the manufacturer’s instructions. Colored suspensions were incubated for 15 min in the dark on ice and measured on a Cytomics FC500 Beckman Coulter flow cytometer (channels FL1 for Annexin V-FITC and FL4 for PI). Data were analyzed with Kaluza 2.0 Software (Beckman Coulter, Brea, CA, USA).
For orientation: A flow cytometer gives signals particle by particle.

A value given as a limit tells only on which side of the number the result lay.

In the case of `O=C(Nc1cccc(C(F)(F)F)c1)c1ccc(Cn2cnc3c(Cl)nc(Cl)nc32)cc1` [Compound 7, 4-((2,6-Dichloro-9H-purin-9-yl)methyl)-N-(3-(trifluoromethyl)phenyl)benzamide], the “Number of necrotic cells” value is recorded as no more than 7.3%. Moreover, where the note is “5 μM”, the Living cells is 83,07. Where the note is “10 μM”, the Living cells was 56,68. Where the note is “20 μM”, the “Level of apoptosis compared with sorafnib” value is given as “more than two-fold higher level of apoptosis” and the Living cells was 23,92.

As for `Cc1cn(-c2cc(NC(=O)c3ccc(Cn4cnc5c(Cl)nc(Cl)nc54)cc3)cc(C(F)(F)F)c2)cn1` [Compound 10, 4-((2,6-Dichloro-9H-purin-9-yl)methyl)-N-(3-(4-methyl-1H-imidazol-1-yl)-5-(trifluoromethyl)-phenyl)benzamide], the “Number of necrotic cells” value was no more than 7.3%. Moreover, the Living cells (5 μM) was 70,22. Also, the Living cells (10 μM) is 44,89. In addition, for the setting “20 μM”, the “Level of apoptosis compared with sorafnib” value was “more than two-fold higher level of apoptosis” and the Living cells is on record as 21,99.

The values above are taken from PMC8657793, “Synthesis, In Vitro and In Silico Anticancer Activity of New 4-Methylbenzamide Derivatives Containing 2,6-Substituted Purines as Potential Protein Kinases Inhibitors” (International Journal of Molecular Sciences, 2021).
